Measurements: ChEMBL document CHEMBL3352370, “Substrate derived peptidic α-ketoamides as inhibitors of the malarial protease PfSUB1” (Bioorg Med Chem Lett, 2014)
Numbered stars: 1 amine (or outer) side, 2 acyl side, 3 side chain; on linkers, the order of the positions; unused ones are H or OH. Square brackets hold non-standard residues; d marks the D form. Peptide text beside a SMILES is read from it. ξ: configuration not given here. ξ3Amino2oxobutanoyl = CC(N[*:1])C(=O)C(=O)[*:2]; GABA = NCCCC(=O)O; βAla = NCCC(=O)O

Biological target: T1, Subtilisin-like protease 1 (Plasmodium falciparum, UniProt O61142)
T1 sequence (O61142 whole entry): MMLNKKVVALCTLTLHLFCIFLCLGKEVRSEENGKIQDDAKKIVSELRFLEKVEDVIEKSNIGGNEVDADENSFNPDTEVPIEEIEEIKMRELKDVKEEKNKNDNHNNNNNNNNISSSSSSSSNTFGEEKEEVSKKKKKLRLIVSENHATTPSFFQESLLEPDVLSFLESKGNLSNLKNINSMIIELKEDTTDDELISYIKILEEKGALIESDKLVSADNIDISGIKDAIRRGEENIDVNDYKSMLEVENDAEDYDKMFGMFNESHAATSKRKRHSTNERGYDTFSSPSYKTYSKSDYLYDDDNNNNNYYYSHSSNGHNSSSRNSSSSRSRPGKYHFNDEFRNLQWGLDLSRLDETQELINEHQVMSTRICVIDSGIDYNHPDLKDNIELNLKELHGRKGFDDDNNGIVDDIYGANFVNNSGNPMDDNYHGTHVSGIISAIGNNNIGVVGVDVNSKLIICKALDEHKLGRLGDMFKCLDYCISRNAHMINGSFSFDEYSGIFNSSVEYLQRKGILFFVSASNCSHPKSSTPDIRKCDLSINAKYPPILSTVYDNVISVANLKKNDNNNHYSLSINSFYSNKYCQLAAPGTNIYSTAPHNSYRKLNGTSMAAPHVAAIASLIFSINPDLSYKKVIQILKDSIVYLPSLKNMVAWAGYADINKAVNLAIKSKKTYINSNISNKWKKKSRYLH
Test: Inhibition of Plasmodium falciparum SUB1

Row | Structure (SMILES) | IC50 [µM] | Ki [µM]
1 | CC[C@H](C)[C@H](NC(C)=O)C(=O)N[C@H](C(=O)N[C@@H](C)C(=O)NC(C(=O)C(=O)NCCC(=O)O)c1ccccc1)[C@@H](C)O (stereo partly drawn) | > 50 | 
2 | CC[C@H](C)[C@H](NC(=O)[C@H](CCCCN)NC(C)=O)C(=O)N[C@H](C(=O)N[C@@H](C)C(=O)NC(C)C(=O)C(=O)NCCC(=O)O)[C@@H](C)O (stereo partly drawn) (Ac-KITA[ξ3Amino2oxobutanoyl][βAla]-OH) | 1 | 
3 | Oc1ccc(C2Oc3c(c(O)cc4c3C3c5c(O)cc(O)c(O)c5OC(c5ccc(O)c(O)c5)(O4)C3O)CC2O)cc1O (stereo not drawn) | 0.3 | 
4 | COc1ccc(Nc2cc(C)c3cc(NC(=O)c4cc5ccccc5[nH]4)ccc3n2)cc1 |  | 6
5 | CC[C@H](C)[C@H](NC(C)=O)C(=O)N[C@H](C(=O)N[C@@H](C)C(=O)NC(CCC(=O)N(C)C)C(=O)C(=O)NCCC(=O)O)[C@@H](C)O (stereo partly drawn) | > 50 | 
6 | CC[C@H](C)[C@H](NC(C)=O)C(=O)N[C@@H](C)C(=O)N[C@@H](C)C(=O)NC(C)C(=O)C(=O)NCCC(=O)O (stereo partly drawn) | 30 | 
7 | CC[C@H](C)[C@H](NC(C)=O)C(=O)N[C@H](C(=O)NCC(=O)NC(C(=O)C(=O)NCCC(=O)O)C(C)C)[C@@H](C)O (stereo partly drawn) | 4.5 | 
8 | CC[C@H](C)[C@H](NC(=O)[C@H](CCCCN)NC(C)=O)C(=O)N[C@H](C(=O)N[C@@H](C)C(=O)NC(C)C(=O)C(=O)NCCCC(=O)O)[C@@H](C)O (stereo partly drawn) (Ac-KITA[ξ3Amino2oxobutanoyl][GABA]-OH) | 3.1 | 
9 | O=C(CCCCCNC(=O)CCCC[C@@H]1SC[C@@H]2NC(=O)N[C@@H]21)NCCCCCC(=O)Nc1ccc2c(Cl)c(OCCc3ccccc3)oc(=O)c2c1 | 18 | 
10 | CC[C@H](C)[C@H](NC(C)=O)C(=O)N[C@H](C(=O)N[C@@H](C)C(=O)NC(CCC(=O)O)C(=O)C(=O)NCCC(=O)O)[C@@H](C)O (stereo partly drawn) | 5 | 
11 | CC[C@H](C)[C@H](NC(=O)[C@H](CCCCN)NC(C)=O)C(=O)N[C@H](C(=O)N[C@@H](C)C(=O)NC(C)C(=O)C(=O)NCC(=O)O)[C@@H](C)O (stereo partly drawn) (Ac-KITA[ξ3Amino2oxobutanoyl]G-OH) | 10 | 
12 | CC[C@H](C)[C@H](NC(C)=O)C(=O)N[C@H](C(=O)N[C@@H](C)C(=O)NC(Cc1ccccc1)C(=O)C(=O)NCCC(=O)O)[C@@H](C)O (stereo partly drawn) | 100 | 
13 | CC[C@H](C)[C@H](NC(C)=O)C(=O)N[C@H](C(=O)NC(C)(C)C(=O)NC(C)C(=O)C(=O)NCCC(=O)O)[C@@H](C)O (stereo partly drawn) | > 50 | 
14 | CC[C@H](C)[C@H](NC(C)=O)C(=O)N[C@H](C(=O)N[C@@H](C)C(=O)NC(C[C@@H]1CCNC1=O)C(=O)C(=O)NCCC(=O)O)[C@@H](C)O (stereo partly drawn) | > 50 | 
15 | O=C(Nc1ccc(-c2nc3cc(NC(=O)c4ccccc4)ccc3[nH]2)cc1)c1ccccc1 |  | 8
16 | CCC(NC(=O)CNC(=O)[C@@H](NC(=O)[C@@H](NC(C)=O)[C@@H](C)CC)[C@@H](C)O)C(=O)C(=O)NCCC(=O)O (stereo partly drawn) | 1.2 | 
17 | CC[C@H](C)[C@H](NC(C)=O)C(=O)N[C@H](C(=O)NC1(C(=O)NC(C)C(=O)C(=O)NCCC(=O)O)CC1)[C@@H](C)O (stereo partly drawn) | > 50 | 
18 | CC[C@H](C)[C@H](NC(=O)[C@H](CCCCN)NC(C)=O)C(=O)N[C@H](C(=O)N[C@@H](C)C(=O)NC(C)C(=O)C(=O)NCCC(N)=O)[C@@H](C)O (stereo partly drawn) (Ac-KITA[ξ3Amino2oxobutanoyl][βAla]-NH2) | 38 | 
19 | CC(=O)N[C@@H](C)C(=O)N[C@H](C(=O)NCC(=O)NC(C)C(=O)C(=O)NCCC(=O)O)[C@@H](C)O (stereo partly drawn) | > 50 | 
20 | CC[C@@H](C)[C@H](NC(=O)[C@H](CCCCN)NC(C)=O)C(=O)N[C@H](C(=O)N[C@@H](C)C(=O)NC(CCC(N)=O)C(=O)C(=O)NCCC(=O)O)[C@@H](C)O (stereo partly drawn) | 7 | 
21 | CC[C@H](C)[C@H](NC(C)=O)C(=O)N[C@H](C(=O)N[C@@H](C)C(=O)NC(C(=O)C(=O)NCCC(=O)O)C(C)C)[C@@H](C)O (stereo partly drawn) | 20 | 
22 | CC[C@H](C)[C@H](NC(C)=O)C(=O)N[C@H](C(=O)NCC(=O)NC(C)C(=O)C(=O)NCCC(=O)O)[C@@H](C)O (stereo partly drawn) | 0.9 | 
23 | CC[C@H](C)[C@H](NC(C)=O)C(=O)N[C@H](C(=O)N[C@@H](C)C(=O)NC(C)C(=O)C(=O)NCCC(=O)O)[C@@H](C)O (stereo partly drawn) | 2.5 | 
